Reference: ChEMBL document CHEMBL1201862, “PubChem BioAssay data set” (2004)
The source made the active and inactive calls.

Assays:
[1] = molecular target: T1, Adenosylmethionine-8-amino-7-oxononanoate aminotransferase (Mycobacterium tuberculosis, UniProt P9WQ81); experiment: Mycobacterium tuberculosis BioA enzyme inhibitor Measured in Biochemical System Using Plate Reader - 2163-02_Inhibitor_Dose_CherryPick_Activity.; assay type: functional, Mycobacterium tuberculosis UT205
T1 sequence (P9WQ81 whole entry): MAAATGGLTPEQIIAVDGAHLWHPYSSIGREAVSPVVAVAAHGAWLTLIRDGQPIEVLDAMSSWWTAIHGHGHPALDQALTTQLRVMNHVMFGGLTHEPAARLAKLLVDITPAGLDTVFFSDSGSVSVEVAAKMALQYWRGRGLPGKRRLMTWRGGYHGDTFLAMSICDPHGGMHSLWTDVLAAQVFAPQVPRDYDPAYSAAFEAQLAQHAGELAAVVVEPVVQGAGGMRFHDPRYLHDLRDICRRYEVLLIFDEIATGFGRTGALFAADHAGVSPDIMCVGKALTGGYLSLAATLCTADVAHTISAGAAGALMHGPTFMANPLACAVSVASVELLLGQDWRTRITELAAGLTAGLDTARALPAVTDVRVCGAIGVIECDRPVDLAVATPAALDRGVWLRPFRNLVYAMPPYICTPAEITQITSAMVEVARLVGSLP

[2] = molecular target: T2, Fructose-bisphosphate aldolase (Mycobacterium tuberculosis, UniProt P9WQA3); experiment: Fluorescence-based biochemical high throughput dose response assay for inhibitors of the fructose-bisphosphate aldolase (FBA) of M. tuberculosis.; assay type: functional
T2 sequence (P9WQA3 whole entry): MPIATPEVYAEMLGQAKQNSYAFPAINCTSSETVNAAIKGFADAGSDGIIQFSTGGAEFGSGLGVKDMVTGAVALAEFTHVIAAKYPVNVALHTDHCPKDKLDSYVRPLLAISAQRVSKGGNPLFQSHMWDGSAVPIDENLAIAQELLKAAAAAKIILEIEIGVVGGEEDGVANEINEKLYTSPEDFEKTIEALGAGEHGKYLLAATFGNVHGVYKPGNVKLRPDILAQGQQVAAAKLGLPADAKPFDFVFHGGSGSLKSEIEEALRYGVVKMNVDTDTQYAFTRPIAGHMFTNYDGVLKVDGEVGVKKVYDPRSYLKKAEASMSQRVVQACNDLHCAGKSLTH

[3] = molecular target: T3, Sentrin-specific protease 1 (Homo sapiens, UniProt Q9P0U3); experiment: Dose response confirmation of small molecule inhibitors of the catalytic domain of the SUMO protease, SENP1 in a FRET assay.; assay type: functional; settings: read-out: IC50_Mean
T3 sequence (Q9P0U3 whole entry): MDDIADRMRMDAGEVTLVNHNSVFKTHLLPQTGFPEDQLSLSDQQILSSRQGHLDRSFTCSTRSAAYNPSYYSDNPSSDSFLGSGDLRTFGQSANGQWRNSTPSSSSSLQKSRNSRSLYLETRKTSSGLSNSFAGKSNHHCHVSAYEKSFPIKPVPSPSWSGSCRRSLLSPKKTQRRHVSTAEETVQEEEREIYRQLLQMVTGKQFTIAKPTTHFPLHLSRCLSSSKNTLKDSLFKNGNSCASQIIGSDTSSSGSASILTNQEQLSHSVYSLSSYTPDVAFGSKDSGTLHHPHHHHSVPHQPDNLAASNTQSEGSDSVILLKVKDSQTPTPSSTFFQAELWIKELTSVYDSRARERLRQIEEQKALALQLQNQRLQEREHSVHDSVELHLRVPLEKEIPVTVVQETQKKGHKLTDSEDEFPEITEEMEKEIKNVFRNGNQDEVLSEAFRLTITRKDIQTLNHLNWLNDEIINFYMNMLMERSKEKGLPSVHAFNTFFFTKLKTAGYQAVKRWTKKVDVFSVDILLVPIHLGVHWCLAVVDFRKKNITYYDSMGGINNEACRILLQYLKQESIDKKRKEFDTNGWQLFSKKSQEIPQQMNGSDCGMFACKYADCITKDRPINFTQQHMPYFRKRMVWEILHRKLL

[4] = molecular target: Heat shock protein HSP 90-alpha (Homo sapiens, UniProt P07900); assay type: functional, organism-based
[5] = molecular target: T3, Sentrin-specific protease 1; experiment: SENP1 catalytic domain blockers, concentration series – biochemical, kinetic FRET, dose response (AID 651697); assay type: functional; settings: read-out: IC50_Mean
Protein skinhead-1 = molecular target: T4, Protein skinhead-1 (Caenorhabditis elegans, UniProt P34707); assay type: functional
T4 sequence (P34707 whole entry): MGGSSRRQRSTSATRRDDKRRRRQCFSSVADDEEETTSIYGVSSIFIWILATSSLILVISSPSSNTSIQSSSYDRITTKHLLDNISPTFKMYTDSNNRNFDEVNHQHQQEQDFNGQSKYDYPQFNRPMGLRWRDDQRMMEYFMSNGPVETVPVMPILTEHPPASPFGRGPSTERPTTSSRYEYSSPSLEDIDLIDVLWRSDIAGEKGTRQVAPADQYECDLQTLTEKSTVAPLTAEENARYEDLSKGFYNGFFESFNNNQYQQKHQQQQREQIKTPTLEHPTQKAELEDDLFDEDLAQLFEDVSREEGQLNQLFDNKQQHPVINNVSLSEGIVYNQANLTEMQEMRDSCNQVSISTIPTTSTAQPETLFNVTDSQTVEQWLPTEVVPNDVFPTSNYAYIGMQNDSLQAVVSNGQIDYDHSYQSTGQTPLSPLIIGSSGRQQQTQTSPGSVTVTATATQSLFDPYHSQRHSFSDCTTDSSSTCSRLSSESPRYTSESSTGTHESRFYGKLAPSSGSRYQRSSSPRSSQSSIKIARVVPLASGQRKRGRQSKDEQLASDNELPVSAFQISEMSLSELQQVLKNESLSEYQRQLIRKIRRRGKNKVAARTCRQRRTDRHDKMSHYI

[6] = molecular target: T5, Long-chain-fatty-acid--AMP ligase FadD28 (Mycobacterium tuberculosis, UniProt P9WQ59); experiment: Fluorescence polarization aasay to screen for inhibitors that compete for the binding of FadD28 to a bisubstrate Measured in Biochemical System Using Plate Reader - 2147-01_Inhibitor_Dose_CherryPick_Activity.; assay type: functional, Mycobacterium tuberculosis H37Rv
T5 sequence (P9WQ59 whole entry): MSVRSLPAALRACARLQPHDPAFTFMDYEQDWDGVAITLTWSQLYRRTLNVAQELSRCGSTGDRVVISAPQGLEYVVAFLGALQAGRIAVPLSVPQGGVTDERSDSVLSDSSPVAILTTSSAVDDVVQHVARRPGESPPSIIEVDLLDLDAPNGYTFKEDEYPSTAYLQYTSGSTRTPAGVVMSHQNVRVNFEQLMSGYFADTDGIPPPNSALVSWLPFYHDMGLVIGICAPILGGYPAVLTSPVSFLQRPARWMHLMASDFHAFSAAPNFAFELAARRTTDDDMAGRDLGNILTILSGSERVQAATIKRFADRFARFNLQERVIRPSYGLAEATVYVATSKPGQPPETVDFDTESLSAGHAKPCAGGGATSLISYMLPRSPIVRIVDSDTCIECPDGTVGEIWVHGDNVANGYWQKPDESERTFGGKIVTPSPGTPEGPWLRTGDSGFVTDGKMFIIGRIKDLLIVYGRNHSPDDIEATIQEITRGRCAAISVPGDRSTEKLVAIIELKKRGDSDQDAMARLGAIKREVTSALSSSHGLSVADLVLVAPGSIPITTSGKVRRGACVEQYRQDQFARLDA

[7] = molecular target: T6, Mannose-6-phosphate isomerase (Homo sapiens, UniProt P34949); experiment: MPI inhibition at elevated mannose 6-phosphate – biochemical, fluorescence intensity, high mannose 6-phosphate, primary screen (AID 1220)
T6 sequence (P34949 whole entry): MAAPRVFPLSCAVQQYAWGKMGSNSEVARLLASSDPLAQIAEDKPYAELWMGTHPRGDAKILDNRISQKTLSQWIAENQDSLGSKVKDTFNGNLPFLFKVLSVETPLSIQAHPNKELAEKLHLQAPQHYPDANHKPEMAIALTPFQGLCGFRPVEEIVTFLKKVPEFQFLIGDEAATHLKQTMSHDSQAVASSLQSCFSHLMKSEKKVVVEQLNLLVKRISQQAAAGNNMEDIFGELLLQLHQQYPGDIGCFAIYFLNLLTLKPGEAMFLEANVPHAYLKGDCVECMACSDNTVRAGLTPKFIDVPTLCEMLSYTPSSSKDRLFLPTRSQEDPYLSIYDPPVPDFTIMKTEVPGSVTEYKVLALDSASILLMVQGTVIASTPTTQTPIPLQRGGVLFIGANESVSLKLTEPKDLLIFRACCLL

[8] = molecular target: T7, DNA repair and recombination protein RAD54-like (Homo sapiens, UniProt Q92698); experiment: RAD54 Holliday junction migration blockers – biochemical, fluorescence, cherry-picked samples, dose series, confirmation (AID 651657); assay type: functional
T7 sequence (Q92698 whole entry): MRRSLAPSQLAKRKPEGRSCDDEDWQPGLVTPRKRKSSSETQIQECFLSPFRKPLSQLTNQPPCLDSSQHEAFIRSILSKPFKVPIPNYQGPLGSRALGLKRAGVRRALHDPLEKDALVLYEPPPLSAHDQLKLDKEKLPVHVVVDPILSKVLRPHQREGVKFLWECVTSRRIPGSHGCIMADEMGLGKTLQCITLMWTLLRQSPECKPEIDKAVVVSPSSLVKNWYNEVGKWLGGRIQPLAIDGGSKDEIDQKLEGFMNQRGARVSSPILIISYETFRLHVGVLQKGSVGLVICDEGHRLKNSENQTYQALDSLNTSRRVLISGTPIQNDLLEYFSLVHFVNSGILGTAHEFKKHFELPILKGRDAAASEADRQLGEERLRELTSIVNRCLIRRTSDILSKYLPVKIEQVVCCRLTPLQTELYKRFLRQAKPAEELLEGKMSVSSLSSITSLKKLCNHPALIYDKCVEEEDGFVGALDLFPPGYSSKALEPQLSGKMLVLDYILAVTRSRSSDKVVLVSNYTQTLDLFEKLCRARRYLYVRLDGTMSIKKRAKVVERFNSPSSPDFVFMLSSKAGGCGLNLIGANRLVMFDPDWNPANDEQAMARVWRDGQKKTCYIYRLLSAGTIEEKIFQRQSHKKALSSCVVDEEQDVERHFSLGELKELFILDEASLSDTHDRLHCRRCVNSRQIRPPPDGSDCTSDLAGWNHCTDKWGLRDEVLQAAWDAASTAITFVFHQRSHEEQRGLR

Cryptococcus neoformans = experiment: PubChem AID 686997; assay type: functional, organism-based; settings: Cryptococcus neoformans
[9] = molecular target: T8, Corticotropin-releasing factor receptor 2/Corticotropin-releasing factor-binding protein (Homo sapiens, UniProt P24387+Q13324); experiment: Dose Response confirmation of uHTS hits for small molecule antagonists of the CRF-binding protein and CRF-R2 receptor complex.; assay type: functional; settings: read-out: IC50_Mean
T8 sequence (Q13324 whole entry): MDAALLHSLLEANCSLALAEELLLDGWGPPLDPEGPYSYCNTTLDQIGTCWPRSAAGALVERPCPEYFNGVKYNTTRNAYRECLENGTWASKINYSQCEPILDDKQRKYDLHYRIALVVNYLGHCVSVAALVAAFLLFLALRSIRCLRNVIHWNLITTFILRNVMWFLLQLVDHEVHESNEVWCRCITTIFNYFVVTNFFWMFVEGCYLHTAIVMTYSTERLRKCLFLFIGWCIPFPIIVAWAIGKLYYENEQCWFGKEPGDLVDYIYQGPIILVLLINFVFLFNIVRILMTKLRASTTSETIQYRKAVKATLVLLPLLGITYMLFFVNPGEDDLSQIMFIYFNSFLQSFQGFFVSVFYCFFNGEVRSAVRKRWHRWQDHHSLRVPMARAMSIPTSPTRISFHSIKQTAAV
T8 sequence (P24387 whole entry): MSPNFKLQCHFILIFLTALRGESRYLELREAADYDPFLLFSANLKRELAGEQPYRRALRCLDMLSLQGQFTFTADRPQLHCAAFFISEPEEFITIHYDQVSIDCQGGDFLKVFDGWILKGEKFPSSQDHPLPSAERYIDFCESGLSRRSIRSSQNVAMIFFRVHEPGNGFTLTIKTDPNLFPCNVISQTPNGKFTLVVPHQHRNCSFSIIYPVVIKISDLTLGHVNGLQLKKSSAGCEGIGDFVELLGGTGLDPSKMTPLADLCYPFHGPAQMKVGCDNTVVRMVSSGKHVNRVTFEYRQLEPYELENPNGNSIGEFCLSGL

[10] = blockers of CRF-binding protein–CRF-R2 complex – cell-based, uHTS hits, 384-well, dose response (AID 651639); assay type: functional, Homo sapiens; settings: read-out: IC50_Mean
[11] = molecular target: T8, Corticotropin-releasing factor receptor 2/Corticotropin-releasing factor-binding protein; experiment: activators of CRF receptor 2 with binding protein – uHTS hits, confirmation (AID 602473); assay type: functional; settings: read-out: EC50_Mean

In the case of `Cn1nnc2cc(C(=O)Nc3cccnc3)ccc21`, the AC50 [1] is reported as 4.17 µM (active).

With `Oc1nc(N2CCN(Cc3ccc4c(c3)OCO4)CC2)nc2c1CCCC2` the AC50 [1] was 0.921 µM (active).

In the case of `Nc1nnc(/C=C/c2ccccc2Cl)s1`, the IC50 [2] is reported as 1.59 µM (active).

In the case of `Oc1ccc(C=NN=C2c3ccccc3-c3ccccc32)c(O)c1`, the IC50 [3] is reported as 6.06 µM (active), the AC50 [4] is reported as 12.1 µM (active) and the IC50 [5] is reported as 12.5 µM (active).

In the case of `CCCN(CCC)C(=O)Cn1c(=O)c2sccc2n2c(=S)sc(-c3ccccc3)c12`, the IC50 [3] is reported as 12.6 µM (active) and the IC50 [5] is reported as 73.8 µM (inactive).

For `CC(C)CC(C(=O)Oc1ccc2c3c(c(=O)oc2c1)CCC3)N1C(=O)c2ccccc2C1=O` (configuration not stated), the IC50 [2] was 1.27 µM (active) and the IC50 (Protein skinhead-1) was > 100 µM (inactive).

With `Oc1ccccc1Oc1c(F)c(F)nc(N2CCCC2)c1F` the AC50 [6] was 42.5 µM (active) and the IC50 [7] was > 50 µM (not active).

With `CCOC(=O)c1c(C)n(C)c2ccc(OCC(O)CN3CCN(C)CC3)cc12` (configuration not stated) the AC50 [8] was 38.9 µM (active).

In the case of `Cc1cc(C)c2nc(N3CCN(C(=O)c4cccs4)CC3)sc2c1`, the AC50 (Cryptococcus neoformans) is reported as > 70 µM (inactive).

In the case of `Cc1ccc(-c2csc3nc(-c4ccncc4)[nH]c(=O)c23)cc1`, the IC50 [3] is reported as 62 µM (inactive) and the IC50 [5] is reported as 69.3 µM (inactive).

In the case of `C/C=C/c1ccc2c(c1)O[C@@H](CN(C)C(=O)Nc1ccccc1)[C@H](C)CN([C@H](C)CO)S2(=O)=O`, the AC50 [1] is reported as 5.6 µM (active).

For `CSc1nc(SCC(N)=O)c2c3c(sc2n1)CN(C)CC3`, the AC50 [8] was 17.2 µM (active).

In the case of `CN(Cc1ccc([N+](=O)[O-])cc1)c1ccccc1`, the AC50 [6] is reported as > 100 µM (inactive), the IC50 [9] is reported as 2.92 µM (active) and the IC50 [10] is reported as 7.06 µM (active). For the same molecule, the EC50 [11] was > 53 µM (inactive).
